± gives the expanded uncertainty stated by the source.
Details: Liquid; for mass density: 298.15 K, 101.33 kPa, Vibrating tube method; for Normal boiling temperature: Ebulliometric method (Recirculating still)

Structure (SMILES) | mass density [kg/m3] | Normal boiling temperature [°C]
CC12CCC(CC1)C(C)(C)O2 [1,3,3-trimethyl-2-oxabicyclo[2.2.2]octane] | 920.68 ± 0.12 | 176.1 ± 0.4
CCO [ethanol] | 785.27 ± 0.15 | 78.2 ± 0.4

From the NIST ThermoML archive (doi:10.1016/j.jct.2016.01.008)
